Results reported in ChEMBL document CHEMBL1201862, “PubChem BioAssay data set” (2004).
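A five-concentration, 48-hour dose response in 96-well plates underlies each endpoint, interpolated linearly between surrounding concentrations. At the GI50, growth is halved.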 Activity calls are given as the source filed them. Rule as the data show it: active = GI50 up to about 1.1 µM and inactive = higher. *1 amine or outer side, *2 acyl side, *3 side chain or, on linkers, in order; H or OH if unused. Where a SMILES comes first, the peptide text is derived from it. Bridges are numbered along the chain shown (N, C = ends). [ ]: non-standard residue; d: D form. ξ: configuration not given here. X10 = CCC(C)C(N[*:1])C(O)CC(=O)O[C@H](C(=O)C(C)C(=O)[*:2])C(C)C; NMeY = CN[C@@H](Cc1ccc(O)cc1)C(=O)O; ξNMeL = CNC(CC(C)C)C(=O)O; ξT = CC(O)C(N)C(=O)O

Legend:
Assay in all cases: NCI anticancer screen, dose series, 48 h
[1] = test system: NCI/ADR-RES
[2] = test system: A498
[3] = test system: U-251
[4] = test system: IGROV-1
[5] = test system: UACC-257
[6] = test system: MDA-MB-231
[7] = test system: CAKI-1
[8] = test system: BT-549
[9] = test system: HT-29
[10] = test system: ACHN
[11] = test system: KM12
[12] = test system: UACC-62
[13] = test system: DU-145
[14] = test system: OVCAR-8
[15] = test system: RPMI-8226
[16] = test system: SNB-75
[17] = test system: RXF 393
[18] = test system: NCI-H226
[19] = test system: NCI-H522
[20] = test system: EKVX

SMILES	GI50 [1]	GI50 [2]	GI50 [3]	GI50 [4]	GI50 [5]	GI50 [6]	GI50 [7]	GI50 [8]	GI50 [9]	GI50 [10]	GI50 [11]	GI50 [12]	GI50 [13]	GI50 [14]	GI50 [15]	GI50 [16]	GI50 [17]	GI50 [18]	GI50 [19]	GI50 [20]
O=C(CCC(=O)c1ccc(Cl)cc1)NO	> 100 µM (inactive)	> 100 µM (inactive)	> 100 µM (inactive)	> 100 µM (inactive)	> 100 µM (inactive)	> 100 µM (inactive)	> 100 µM (inactive)	> 100 µM (inactive)	> 100 µM (inactive)	> 100 µM (inactive)	> 100 µM (inactive)	> 100 µM (inactive)	> 100 µM (inactive)	> 100 µM (inactive)	> 100 µM (inactive)	> 100 µM (inactive)	> 100 µM (inactive)	> 100 µM (inactive)	> 100 µM (inactive)	> 100 µM (inactive)
CSC1=C(C)C(/C=N/Nc2ccc([N+](=O)[O-])cc2)=C(C)N(c2ccccc2)S1(=O)=O	6.49 µM (inactive)	> 100 µM (inactive)	> 100 µM (inactive)	28.2 µM (inactive)	> 100 µM (inactive)	> 100 µM (inactive)	> 100 µM (inactive)	20.8 µM (inactive)	28.5 µM (inactive)	44.9 µM (inactive)	26.5 µM (inactive)	74.1 µM (inactive)	> 100 µM (inactive)	17.3 µM (inactive)	5.07 µM (inactive)	38.5 µM (inactive)	> 100 µM (inactive)	> 100 µM (inactive)	12.9 µM (inactive)	33.9 µM (inactive)
CC(NC(=O)C(Cc1ccc(OC(=O)c2ccccc2)cc1)NC(=O)OC(C)(C)C)C(=O)NCC(=O)NC(Cc1ccccc1)C(=O)NN (configuration not stated)	> 100 µM (inactive)	15 µM (inactive)	51.5 µM (inactive)	25.4 µM (inactive)	–	37.9 µM (inactive)	89.1 µM (inactive)	55.5 µM (inactive)	31 µM (inactive)	> 100 µM (inactive)	80.7 µM (inactive)	40.6 µM (inactive)	> 100 µM (inactive)	65 µM (inactive)	15.8 µM (inactive)	25.6 µM (inactive)	34.8 µM (inactive)	> 100 µM (inactive)	29.6 µM (inactive)	> 100 µM (inactive)
COc1cc2c(/C=C3/C(=O)Nc4ccccc43)c(Cl)[nH]c2cc1C	0.0263 µM (active)	0.0632 µM (active)	0.041 µM (active)	0.034 µM (active)	1.52 µM (inactive)	0.0893 µM (active)	0.0689 µM (active)	0.0603 µM (active)	0.0495 µM (active)	0.0923 µM (active)	0.0329 µM (active)	0.0371 µM (active)	0.0955 µM (active)	0.0869 µM (active)	0.0551 µM (active)	0.192 µM (active)	0.311 µM (active)	0.373 µM (active)	0.0446 µM (active)	0.0521 µM (active)
COc1nc2ccc(CNc3ccc(C(=O)O)cc3)cc2nc1OC	> 10 µM (inactive)	> 10 µM (inactive)	> 10 µM (inactive)	> 10 µM (inactive)	> 10 µM (inactive)	> 10 µM (inactive)	> 10 µM (inactive)	> 10 µM (inactive)	> 10 µM (inactive)	> 10 µM (inactive)	> 10 µM (inactive)	> 10 µM (inactive)	> 10 µM (inactive)	> 10 µM (inactive)	> 10 µM (inactive)	> 10 µM (inactive)	> 10 µM (inactive)	> 10 µM (inactive)	> 10 µM (inactive)	> 10 µM (inactive)
CCC(C)C1NC(=O)C(NC(=O)C(CC(C)C)N(C)C(=O)[C@@H]2CCCN2)C(C)OC(=O)[C@H](Cc2ccc(OC)cc2)N(C)C(=O)[C@@H]2CCCN2C(=O)[C@H](CC(C)C)NC(=O)C(C)C(=O)[C@H](C(C)C)OC(=O)CC1O (some centres not stated) (H-P[ξNMeL][ξT][X10]LP[NMeY](Me); ester 3-C)	0.0521 µM (active)	0.00411 µM (active)	< 0.0001 µM (active)	0.000288 µM (active)	0.000815 µM (active)	0.00042 µM (active)	0.00869 µM (active)	0.00156 µM (active)	0.000195 µM (active)	0.00234 µM (active)	< 0.01 µM (active)	< 0.0001 µM (active)	0.00227 µM (active)	0.00221 µM (active)	0.00116 µM (active)	0.000682 µM (active)	< 0.01 µM (active)	< 0.01 µM (active)	0.000366 µM (active)	< 0.01 µM (active)
O=[N+]([O-])c1ccc(/N=N/c2c(O)ccc3cc(S(=O)(=O)O)cc(S(=O)(=O)O)c23)cc1	> 100 µM (inactive)	> 100 µM (inactive)	> 100 µM (inactive)	> 100 µM (inactive)	> 100 µM (inactive)	> 100 µM (inactive)	> 100 µM (inactive)	> 100 µM (inactive)	> 100 µM (inactive)	> 100 µM (inactive)	> 100 µM (inactive)	> 100 µM (inactive)	> 100 µM (inactive)	> 100 µM (inactive)	> 100 µM (inactive)	> 100 µM (inactive)	> 100 µM (inactive)	> 100 µM (inactive)	> 100 µM (inactive)	> 100 µM (inactive)
O=CN/C=C/c1cccc(O)c1	52.2 µM (inactive)	> 64.3 µM (inactive)	56.9 µM (inactive)	55 µM (inactive)	63.7 µM (inactive)	49.8 µM (inactive)	> 61.5 µM (inactive)	8.26 µM (inactive)	50.4 µM (inactive)	50 µM (inactive)	62.4 µM (inactive)	46.1 µM (inactive)	57.5 µM (inactive)	54.1 µM (inactive)	> 71.9 µM (inactive)	> 69.3 µM (inactive)	60 µM (inactive)	56.5 µM (inactive)	48.3 µM (inactive)	69.2 µM (inactive)
O=c1oc2c(Br)c(O)c(Br)cc2c2ccccc12	12.2 µM (inactive)	25.8 µM (inactive)	32.1 µM (inactive)	30.6 µM (inactive)	18 µM (inactive)	16.9 µM (inactive)	16 µM (inactive)	29 µM (inactive)	30 µM (inactive)	30.8 µM (inactive)	–	20.1 µM (inactive)	29.3 µM (inactive)	33.6 µM (inactive)	27 µM (inactive)	32 µM (inactive)	38.6 µM (inactive)	27.1 µM (inactive)	15.8 µM (inactive)	23.2 µM (inactive)
O=[N+]([O-])c1cc(Cl)cc2cc(Cl)cnc12	> 100 µM (inactive)	48 µM (inactive)	> 100 µM (inactive)	7.35 µM (inactive)	61.4 µM (inactive)	60.1 µM (inactive)	> 100 µM (inactive)	> 100 µM (inactive)	> 100 µM (inactive)	> 100 µM (inactive)	–	53.2 µM (inactive)	> 100 µM (inactive)	98.9 µM (inactive)	> 100 µM (inactive)	15.6 µM (inactive)	> 100 µM (inactive)	> 100 µM (inactive)	> 100 µM (inactive)	83.2 µM (inactive)
